Experimental data as given in patent publication US20220251126A1, “ANTICANCER AGENTS” (Yissum Research Development Company of the Hebrew …, priority 2019, published 2022).
Like-named read-outs stand apart in the source and are kept apart here.

Assays:
A375 = test: Cytotoxicity, A375 cells; format: cell-based, human
A2780 = test: MTT cytotoxicity, ovarian cancer cells A2780; format: cell-based, human
Protocol: (§1) Cell cultures. The human ovarian A2780 and A2780cisR cancer were obtained from the American Type Culture Collection (ATCC, Rockville, Md.). Cell lines were maintained in the logarithmic phase at 37° C. under a 5% carbon dioxide atmosphere using RPMI 1640 medium containing 10% fetal calf serum, antibiotics (50 units per mL penicillin and 50 μg mL^−1 streptomycin) and 2 mM L-glutamine. MTT assay. The growth inhibitory effect towards human cell lines was evaluated by means of MTT (tetrazolium salt reduction) assay. Briefly, 3-8×10^3 cells per well, dependent upon the growth characteristics of the cell line, were seeded in 96-well microplates in growth medium (100 μL) and then incubated at 37° C. under a 5% carbon dioxide atmosphere. After 24 h, the medium was removed and replaced with a fresh one containing the compound to be studied at an appropriate concentration. Triplicate cultures were established for each treatment. After 72 h, each well was treated with 10 μL of a 5 mg mL^−1 MTT (3-(4,5-dimethylthiazol-2-yl)-2,5-diphenyltetrazoliumbromide) solution, and after additional 5 h, 100 μL of a sodium dodecyl sulfate (SDS) solution in 0.01 M HCl were added. Following overnight incubation, the inhibition of cell growth induced by the tested complexes was detected by measuring the absorbance of each well at 570 nm using a Bio-Rad 680 microplate reader (Bio-Rad, Hercules, CA).The mean absorbance for each drug dose was expressed as a percentage of the control untreated well absorbance and plotted vs. drug concentration.

PC9 = test: Cytotoxicity, PC9 cells; format: cell-based, human
A2780cisR = test: MTT cytotoxicity, cisplatin resistant line A2780cisR; format: cell-based, human
Protocol: as §1

[1] = test system: Lewis lung carcinoma (LLC); test: In vivo anticancer activity toward Lewis lung carcinoma (LLC) solid tumor; parameters: species or system C57BL mice; conditions: for reduction of tumor growth / tumor mass compared to the control group: LLC model, day 15, rounded values of the text; for In vivo efficacy LLC Inhibition of tumor growth (%) / In vivo efficacy LLC tumor weight: Table 1, daily dose 20 (Gem-Carb complex, oral), 3 (cisplatin), 60 (gemcitabine); for In vivo efficacy LLC Inhibition of tumor growth (%): day 15, vs control, 60 + 3 (combination) mg kg^-1; for In vivo efficacy LLC tumor weight / Average tumor weight (mean ± SD, g) / Inhibition of tumor growth (%): day 15; for In vivo efficacy LLC tumor weight: 60 + 3 (combination) mg kg^-1, days 7-14; for Average tumor weight (mean ± SD, g) / Inhibition of tumor growth (%): Table 2, daily oral 20 mg kg^-1 Gem-Carb complex, daily i.p. 3 mg kg^-1 cisplatin, 60 mg kg^-1 Gem or combination, days 7-14
Protocol: In vivo anticancer activity toward Lewis lung carcinoma (LLC). All studies involving animal testing were carried out in accordance with ethical guidelines for animal research acknowledging the European Directive 2010/63/UE as to the animal welfare and protection and the related codes of practice. The mice were purchased from Charles River, housed in steel cages under controlled environmental conditions (constant temperature, humidity, and 12 h dark/light cycle), and alimented with commercial standard feed and tap water ad libitum. The LLC cell line was purchased from ECACC, United Kingdom. The LLC cell line was maintained in DMEM (Euroclone) supplemented with 10% heat inactivated fetal bovine serum (Euroclone), 10 mM L-glutamine, 100 U mL-1 penicillin, and 100 μg mL^−1 streptomycin in a 5% CO2 air incubator at 37° C. The LLC was implanted intramuscularly (i.m.) as a 2×10^6 cell inoculum into the right hind leg of 8 week old male and female C57BL mice (24±3 g body weight). […] Control mice received the vehicle (0.5% DMSO (v/v) and 99.5% of a saline solution (v/v)), whereas treated groups received daily doses of ctc-[Pt(NH3)2(Gem-Carb)(PhB)Cl2] […] At day 15, animals were sacrificed, the legs were amputated at the proximal end of the femur, and the inhibition of tumor growth was determined from the difference in the weights of the tumor-bearing leg and the healthy leg of the animals, expressed as a percentage referenced to the control animals Body weight was measured at day 0 and from day 7 onwards every 2 days and was taken as a parameter for systemic toxicity. All presented values are the means ±SD of no less than three measurements.
Moreover, it provides no information on the toxicity of the compounds. […] Seven days after tumor inoculation the tumor-bearing mice were randomized into vehicle control and treatment groups. Control mice received the vehicle (0.5% DMSO (v/v) and 99.5% of a saline solution (v/v)), whereas treated groups received daily doses of ctc-[Pt(NH3)2(Gem-Carb)(PhB)Cl2] […] As an estimation of the adverse side effects, changes in the body weights were monitored every two days.

[2] = parameters: species or system C57BL mice; conditions: mouse, in vivo
Protocol: In vivo anticancer activity toward Lewis lung carcinoma (LLC). All studies involving animal testing were carried out in accordance with ethical guidelines for animal research acknowledging the European Directive 2010/63/UE as to the animal welfare and protection and the related codes of practice. The mice were purchased from Charles River, housed in steel cages under controlled environmental conditions (constant temperature, humidity, and 12 h dark/light cycle), and alimented with commercial standard feed and tap water ad libitum. The LLC cell line was purchased from ECACC, United Kingdom. […] At day 15, animals were sacrificed, the legs were amputated at the proximal end of the femur, and the inhibition of tumor growth was determined from the difference in the weights of the tumor-bearing leg and the healthy leg of the animals, expressed as a percentage referenced to the control animals Body weight was measured at day 0 and from day 7 onwards every 2 days and was taken as a parameter for systemic toxicity. […]
Moreover, it provides no information on the toxicity of the compounds. […] As an estimation of the adverse side effects, changes in the body weights were monitored every two days.

physchem = format: physicochemical
Protocol: ctc-[Pt(NH3)2(Tax-Carb)(OH)Cl2] (3 mg, 0.0025 mmol) was dissolve in 750 μL of DMSO-d6 and mixed with ascorbic acid (2.2 mg, 0.0125 mmol). The ^1H NMR spectra were recorded every 6 min at 37° C.
We incubated ctc-[Pt(NH3)2(Tax-Carb)(OH)Cl2] with 5 eq of ascorbate and the reduction was followed by ^1H NMR. The NH proton in ctc-[Pt(NH3)2(Tax-Carb)(OH)Cl2] resonates at 9.2 ppm and in free taxol at ˜8.85 ppm. […] Similar results were obtained for the reduction of ctc-[Pt(NH3)2(EM-Carb)(OAc)Cl2] (FIG. 5A).

[3] = Homo sapiens, A2780, Table 1, 72 h incubation, MTT, read-out: In vitro IC50 (μM) Cancer cell lines A2780
[4] = Homo sapiens, A2780cisR, Table 1, 72 h incubation, MTT, read-out: In vitro IC50 (μM) Cancer cell lines A2780cisR

Row | Structure (SMILES) | reduction of tumor growth / tumor mass compared to the control group [1] | In vivo efficacy LLC Inhibition of tumor growth (%) [1] [%] | In vivo efficacy LLC tumor weight [1] [g] | Average tumor weight (mean ± SD, g) [1] [g] | Inhibition of tumor growth (%) [1] [%] | IC50 (A2780; [3]) [nM] | IC50 (A2780cisR; [4]) [nM] | further results
1 | COc1ccc(/C=C\c2cc(OC)c(OC)c(OC)c2)cc1O [CA4, combretastatin-A4] |  |  |  |  |  |  |  | IC50 (A375; Table 3, unit nM, read-out: Cytotoxicity data A375 mean): 1.63 nM; IC50 (A2780; Table 3, unit nM, read-out: Cytotoxicity data A2780 mean): 2.12 nM; IC50 (PC9; Table 3, unit nM, read-out: Cytotoxicity data PC9 mean): 4.87 nM; IC50 (A2780cisR; Table 3, unit nM, read-out: Cytotoxicity data A2780 res mean): 2.63 nM
2 | N.N.[Cl][Pt][Cl] [Cisplatin, cisplatin] | ~90% | 90.3 | 0.040 ± 0.01 | 0.040 ± 0.01 | 90.3 |  |  | 
3 | Nc1ccn([C@@H]2O[C@H](CO)[C@@H](O)C2(F)F)c(=O)n1 [Gemcitabine, gemcitabine] | about 80% | 80.5 | 0.08 ± 0.2 | 0.080 ± 0.2 | 80.5 | 2 ± 1 | 5 ± 1 | body weight loss [2]: ~20%
4 | N.N.[Cl-].[Cl-].[OH-].[OH-].[Pt+4] [Oxoplatin, oxoplatin] |  |  |  |  |  |  |  | IC50 (A375; Table 3, unit μM, read-out: Cytotoxicity data A375 mean): 2210 nM; IC50 (A2780; Table 3, unit μM, read-out: Cytotoxicity data A2780 mean): 450 nM; IC50 (PC9; Table 3, unit μM, read-out: Cytotoxicity data PC9 mean): 3990 nM; IC50 (A2780cisR; Table 3, unit μM, read-out: Cytotoxicity data A2780 res mean): 1170 nM
5 | CC(=O)O[C@H]1C(=O)[C@@]2(C)[C@H]([C@H](OC(=O)c3ccccc3)[C@]3(O)C[C@H](OC(=O)[C@H](O)[C@@H](NC(=O)c4ccccc4)c4ccccc4)C(C)=C1C3(C)C)[C@]1(OC(C)=O)CO[C@@H]1C[C@@H]2O [Taxol, Paclitaxel] |  |  |  |  |  | 2.2 ± 1 | 3 ± 0.06 | IC50 (A375; Homo sapiens, A-375, Table 4, cells in nM, read-out: Cytotoxicity data A375): 10 nM; IC50 (A2780; Homo sapiens, A2780, Table 4, cells in nM, read-out: Cytotoxicity data A2780): 1.05 nM; IC50 (PC9; Homo sapiens, PC-9, Table 4, cells in nM, read-out: Cytotoxicity data PC9): 4.5 nM; IC50 (A2780cisR; Homo sapiens, A2780cisR, Table 4, cells in nM, read-out: Cytotoxicity data A2890cisR): 3.1 nM
6 | CC(=O)OC1C(=O)C2(C)C(O)CC3OCC3(OC(C)=O)C2C(OC(=O)c2ccccc2)C2(O)CC(OC(=O)C(OC(=O)[O][Pt]([NH2])([NH2])([OH])([Cl])[Cl])C(NC(=O)c3ccccc3)c3ccccc3)C(C)=C1C2(C)C (stereo not shown) [ctc-[Pt(NH3)2(Tax-Carb)(OH)Cl2]] |  |  |  |  |  |  |  | half-life at 3.3 mM (physchem): 25 min
